Data: patent US20260297083A1, “SUBSTITUTED ACETYLENE COMPOUND DERIVATIVES AND THEIR PHARMACEUTICAL USE” (AVELOS THERAPEUTICS INC., priority 2023, published 2026)

Biological target: T1, Polθ polymerase domain (amino acids 1792-2590) (Homo sapiens, UniProt O75417)
T1 construct: 10×Histidine-SUMO (N, cleaved yes); made in house; host or cells: E. coli
T1 sequence (O75417 1792-2590): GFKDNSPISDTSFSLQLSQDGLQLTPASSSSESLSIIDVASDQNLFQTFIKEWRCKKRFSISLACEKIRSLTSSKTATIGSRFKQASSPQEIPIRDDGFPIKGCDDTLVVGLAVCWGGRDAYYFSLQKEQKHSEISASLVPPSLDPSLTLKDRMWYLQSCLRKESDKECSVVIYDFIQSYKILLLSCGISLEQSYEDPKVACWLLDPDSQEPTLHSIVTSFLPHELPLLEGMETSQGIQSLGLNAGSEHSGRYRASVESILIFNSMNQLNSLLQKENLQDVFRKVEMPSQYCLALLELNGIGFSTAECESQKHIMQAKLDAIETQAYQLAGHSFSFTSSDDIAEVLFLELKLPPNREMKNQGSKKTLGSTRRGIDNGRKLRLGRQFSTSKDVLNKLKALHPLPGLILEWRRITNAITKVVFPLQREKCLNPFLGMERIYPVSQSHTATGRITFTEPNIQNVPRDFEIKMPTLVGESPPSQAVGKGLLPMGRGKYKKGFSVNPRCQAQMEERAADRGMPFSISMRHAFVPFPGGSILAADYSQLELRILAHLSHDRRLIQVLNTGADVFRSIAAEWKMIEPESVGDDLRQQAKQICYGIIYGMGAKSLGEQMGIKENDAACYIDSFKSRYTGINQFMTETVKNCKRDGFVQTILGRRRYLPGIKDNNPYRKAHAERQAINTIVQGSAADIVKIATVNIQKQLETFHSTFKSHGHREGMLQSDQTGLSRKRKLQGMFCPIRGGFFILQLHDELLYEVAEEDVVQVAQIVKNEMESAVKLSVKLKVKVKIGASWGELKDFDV
Assay: Picogreen assay of Polθ polymerase activity
Type: biochemical
Conditions: 12-point concentration response, 90 minutes incubation at room temperature, 8 nM Polθ in 2×polymerase mixture, read-out: PolQ IC50
Excerpt: The DNA sequence of the polQ gene (Genebank ID #NM 199420.4) was chemically synthesized. The DNA sequence encoding the polymerase domain (amino acids 1792-2590) was subcloned into an E. coli expression plasmid, resulting in the fusion of 10×Histidine-SUMO tag at the N terminus of the polymerase domain.
The protein was expressed in E. coli. and purified using a 2-step IMAC (immobilized metal chelate affinity chromatography) procedure. Briefly stated, the overexpressed E. coli lysate was subjected to Ni-NTA purification, and an N-terminal tag was digested by a SUMO protease. Then, the excised fragment of 10×Histidine-SUMO tag was removed using Ni-NTA beads. The resulting protein was used for the Picogreen assay, as described below.
The methods of DNA complex preparation were slightly modified from the protocol previously reported (Zatreanu et al., 2021, Nature Communications, 12:3636). Briefly stated, polθ substrate was prepared by mixing Oligo1 (5′-GCG GCT GTC ATA AG-3′) and Oligo2 (5′-GCTACATTGACAATGGCATCAAATCTCAGATTGCGTCTTATGACAGCCGCG-3′) in an annealing buffer (20 mM Tris-Cl, pH 7.5, 50 mM NaCl) to the final concentration of 22 uM and 20 uM, respectively. The Polθ product was prepared by mixing Oligo3 (5′-CGCGGCTGTCATAAGACGCAATCTGAGATTTGATGCCATTGTCAATGTAGC-3′) and Oligo2 (5′-GCTACATTGACAATGGCATCAAATCTCAGATTGCGTCTTATGACAGCCGCG-3′) to the final concentration of 20 uM. The polθ product was used for the top signal control in the Picogreen assay. Both substrate and product were heated to 95° C. […] and cooled slowly to room temperature.
To evaluate the ability of test compounds to inhibit the activity of polθ in vitro, a Picogreen assay was performed to measure polθ IC50 (nM).
The reactions were performed at room temperature in an assay buffer (25 mM Tris-HCl, pH 7.5, 12.5 mM NaCl, 0.5 mM MgCl2, 5% (v/v) glycerol, 0.01% (v/v) Triton X-100, 0.01% (w/v) Bovine serum albumin, 1 mM DTT). Thirty microliters of 2×polymerase mixture (8 nM Polθ enzyme in an assay buffer) were distributed to 96 well plates, test compounds were prepared by dilution in 100% DMSO to obtain the correct dose range for a 12-point concentration response and 1 μl was dispensed into each well, and then 30 microliters of 2×substrate mix (100 nM DNA and 40 uM dNTPs in an assay buffer) was added. After 90 minutes of incubation, the reaction was stopped and DNA was stained by adding 40 microliters of Picogreen solution (1:80 dilution of Picogreen, Invitrogen, Cat #P7581, 25 mM Tris-HCl, pH 7.5, 10 mM EDTA, pH 7.5).
The fluorescence intensity was measured at excitation/emission=485 nm/520 nm using an Ensight plate reader (Perkin Elmer). The data was analyzed by GraphPad Prism software (Version 8.4.3) to calculate IC50.

Structure (SMILES)	IC50
Cc1cc(C(F)(F)F)cc(N2[C@H](C(=O)N(CC#Cc3ccc(N)nn3)c3ccc(F)c(C)c3)CCS2(=O)=O)n1 [compound 18]	1 to 50 nM
Cc1cc(C(F)(F)F)cc(N2[C@H](C(=O)N(CC#Cc3ccc(C(=O)N(C)C)nc3)c3ccc(F)c(C)c3)CCS2(=O)=O)n1 [compound 111]	1 to 50 nM
Cc1cc(C(F)(F)F)cc(N2[C@H](C(=O)N(CC#Cc3ccc(N4CCOCC4)nc3)c3ccc(F)c(C)c3)CCS2(=O)=O)n1 [compound 85]	1 to 50 nM
Cc1cc(C(F)(F)F)cc(N2[C@H](C(=O)N(CC#Cc3cncc(C(=O)N4CC5CCC(C4)N5)n3)c3ccc(F)c(C)c3)CCS2(=O)=O)n1 [compound 73]	1 to 50 nM
Cc1cc(C(F)(F)F)cc(N2[C@H](C(=O)N(CC#Cc3ccc(C(N)=O)nc3C)c3ccc(F)c(C)c3)CCS2(=O)=O)n1 [compound 117]	1 to 50 nM
CNC(=O)c1cnc(C#CCN(C(=O)[C@@H]2CCS(=O)(=O)N2c2cc(C(F)(F)F)cc(C)n2)c2ccc(F)c(C)c2)cn1 [compound 67]	1 to 50 nM
Cc1ccc(F)c(N(CC#Cc2cnc(N3CCOCC3)cn2)C(=O)[C@H]2CCS(=O)(=O)N2c2cc(C(F)(F)F)cc(C)n2)c1 [compound 41]	> 101 nM
Cc1cc(C(F)(F)F)cc(N2[C@H](C(=O)N(CC#Cc3cncc(C(=O)N4C[C@H](C)N[C@@H](C)C4)n3)c3ccc(F)c(C)c3)CCS2(=O)=O)n1 [compound 74]	> 101 nM
Cc1cc(C(F)(F)F)cc(N2[C@H](C(=O)N(CC#Cc3ccc(NC(C)C)nn3)c3ccc(F)c(C)c3)CCS2(=O)=O)n1 [compound 20]	1 to 50 nM
Cc1cc(C(F)(F)F)cc(N2C(=O)CC[C@H]2C(=O)N(CC#Cc2cncn2C)c2ccc(F)c(C)c2)n1 [compound 9]	1 to 50 nM
Cc1cc(C(F)(F)F)cc(N2[C@H](C(=O)N(CC#Cc3ncc(C(N)=O)cn3)c3ccc(F)c(C)c3)CCS2(=O)=O)n1 [compound 81]	> 101 nM
Cc1cc(C(F)(F)F)cc(N2[C@H](C(=O)N(CC#Cc3nccnc3C(N)=O)c3ccc(F)c(C)c3)CCS2(=O)=O)n1 [compound 64]	1 to 50 nM
Cc1cc(C(F)(F)F)cc(N2[C@H](C(=O)N(CC#Cc3ccc(=O)[nH]n3)c3ccc(F)c(C)c3)CCS2(=O)=O)n1 [compound 26]	1 to 50 nM
Cc1cc(C(F)(F)F)cc(N2[C@H](C(=O)N(CC#Cc3ccc(C(N)=O)nc3)c3ccc(F)c(C)c3)CC3(CC3)S2(=O)=O)n1 [compound 145, (S)—N-(3-(6-carbamoylpyridin-3-yl)prop-2-yn-1-yl)-N-(4-fluoro-3-methylphenyl)-5-(6-methyl-4-(trifluoromethyl)pyridin-2-yl)-4-thia-5-azaspiro [2,4]heptane-6-carboxamide 4,4-dioxide]	1 to 50 nM
Cc1cc(C(F)(F)F)cc(N2[C@H](C(=O)N(CC#Cc3ccc(Cc4ccc(=O)[nH]n4)nc3)c3ccc(F)c(C)c3)CCS2(=O)=O)n1 [compound 133]	1 to 50 nM
Cc1cc(C(F)(F)F)cc(N2[C@H](C(=O)N(CC#Cc3ccc(F)cn3)c3ccc(F)c(C)c3)CCS2(=O)=O)n1 [compound 93]	1 to 50 nM
Cc1ccc(F)c(N(CC#Cc2cnc(NC(C)C)cn2)C(=O)[C@@H]2CCS(=O)(=O)N2c2cc(C(F)(F)F)cc(C)n2)c1 [compound 37]	1 to 50 nM
Cc1cc(C(F)(F)F)cc(N2[C@H](C(=O)N(CC#Cc3cc(N4CCOCC4)ncn3)c3ccc(F)c(C)c3)CCS2(=O)=O)n1 [compound 75]	1 to 50 nM
Cc1cc(C(F)(F)F)cc(N2[C@H](C(=O)N(CC#Cc3ncc(C(=O)N4CCOCC4)cn3)c3ccc(F)c(C)c3)CCS2(=O)=O)n1 [compound 82]	51 to 100 nM
Cc1cc(C(F)(F)F)cc(N2[C@H](C(=O)N(CC#Cc3ccc(C#N)nc3)c3ccc(F)c(C)c3)CCS2(=O)=O)n1 [compound 115]	1 to 50 nM
